US11554182B2, “Macrocyclic complexes of alpha-emitting radionuclides and their use in targeted radiotherapy of cancer” (CORNELL UNIVERSITY, priority 2017, dated 2023)

Test: In vivo biodistribution of ^225Ac complexes after intravenous injection
Set-up: species or system C57BL/6 mice
Description: In Vivo Biodistribution of ^225Ac Complexes of Macropa and DOTA. All experiments were approved by the Institutional Animal Care Committee (IACC) of the University of British Columbia and were performed in accordance with the Canadian Council on Animal Care Guidelines. A total of 9 female C57BL/6 mice (6-8 weeks old, 20-25 g) were used for the biodistribution study of each radiometal complex, n=3 for each time point.
Macropa (100 μL of a 1 mg/mL solution in NH4OAc) was diluted with 387 μL of NH4OAc (1 M, pH 7), and an aliquot (203 μL) of ^225Ac(NO3)3 (˜157 kBq) was then added; the pH of this solution was adjusted to 6.5-7 by the addition of 1 M NaOH (210 μL, trace metal grade). After 5 min at ambient temperature, the reaction solution was analyzed by TLC (0.4 M pH 4 sodium citrate as the eluent), which confirmed >95% radiochemical yield. The reaction was allowed to proceed overnight, and the radiochemical yield was again confirmed to be >95% the following morning. At this time, mice were anesthetized by 2% isoflurane, and approximately 100 μL (10-15 kBq) of the [^225Ac(macropa)]^+ complex were injected into the tail vein of each mouse. After injection, mice were allowed to recover and roam freely in their cages, and were euthanized by CO2 inhalation at 15 min, 1 h, or 5 h (n=3 at each time point) post-injection. Blood was collected by cardiac puncture and placed into an appropriate test tube for scintillation counting. Tissues collected included heart, liver, kidneys, lungs, small intestine, large intestine, brain, bladder, spleen, stomach, pancreas, bone, thyroid, tail, urine, and feces. Tissues were weighed and then counted with a calibrated gamma counter (Packard, Cobra II model 5002) using three energy windows: 60-120 keV (window A), 180-260 keV (window B), and 400-480 keV (window C). Counting was performed both immediately after sacrifice and after 7 days; counts were decay corrected from the time of injection and then converted to the percentage of injected dose (% ID) per gram of tissue (% ID/g). No differences were noted between the data; therefore, the biodistributions are reported using the data acquired immediately using window A.
The biodistribution studies of [^225Ac(DOTA)]^− and ^225Ac(NO3)3 were carried out as described above for [^225Ac(macropa)]^+, with the following modifications. [^225Ac(DOTA)]^− was prepared by adding ^225Ac(NO3)3 (338 μL, 1.1 MBq) to a solution of DOTA (100 μg, 20 mg/mL in H2O) in NH4OAc (467 μL, 0.15 M, pH 7). The pH of the solution was adjusted to 7 using NH4OAc (150 μL, 1 M, pH 7) and the solution was heated at 85° C. for 45 min. RCY>99% was confirmed by TLC as described above. [^225Ac(DOTA)]^− was diluted with saline to a final concentration of 0.05 MBq/100 μL, and 100 μL were injected into each mouse. ^225Ac(NO3)3 (˜58 μL, 0.4 MBq) was diluted and injected in the same manner as [^225Ac(DOTA)]^−. One mouse that was to be euthanized at the 5 h time point in the [^225Ac(DOTA)]^− study died shortly after injection. In the same manner, one mouse that was to be euthanized at the 1 h time point in the ^225Ac(NO3)3 study died.
The in vivo stability [^225Ac(macropa)]^+ was examined by comparing its biodistribution to those of ^225Ac(NO3)3 and [^225Ac(DOTA)]^−. C57BL/6 mice were injected via tail vein with 10-50 kBq of each radiometal complex and were sacrificed after 15 min, 1 h, or 5 h. The amount of ^225Ac retained in each organ was quantified by gamma counting and reported as the percent of injected dose per gram of tissue (% ID/g). The results of these studies are compiled in Tables 1-3. Inadequate stability of an ^225Ac complex leading to the loss of radioisotope in vivo is manifested by the accumulation of ^225Ac in the liver, spleen, and bone of mice.^[11,12,32] […] The biodistribution profile of [^225Ac(macropa)]^+ (FIG. 3B) differs markedly from that of ^225Ac(NO3)3. […]

[1] = 15 min after i.v. injection, energy window A (60-120 keV)
[2] = 15 min after i.v. injection, energy window B (180-260 keV)
[3] = 15 min after i.v. injection, energy window C (400-480 keV)
[4] = 1 h after i.v. injection, energy window A (60-120 keV)
[5] = 1 h after i.v. injection, energy window B (180-260 keV)

In the case of `O=[N+]([O-])[O-].O=[N+]([O-])[O-].O=[N+]([O-])[O-].[225Ac]` [^225Ac(NO3)3], the “% ID/g in bladder” value [1] is reported as 1.477 % ID/g, the “% ID/g in blood” value [1] is reported as 40.966 % ID/g and the “% ID/g in bone (femur + joint)” value [1] is reported as 2.764 % ID/g. For the same compound, the “% ID/g in brain” value [1] was 0.614 % ID/g, the “% ID/g in feces” value [1] was 0.240 % ID/g and the “% ID/g in heart” value [1] was 8.557 % ID/g. For the same compound, the “% ID/g in kidneys” value [1] was 10.468 % ID/g, the “% ID/g in large intestines” value [1] was 1.116 % ID/g and the “% ID/g in liver” value [1] was 22.899 % ID/g. For the same compound, the “% ID/g in lungs” value [1] was 12.757 % ID/g, the “% ID/g in pancreas” value [1] was 2.366 % ID/g and the “% ID/g in small intestines” value [1] was 2.002 % ID/g. The “% ID/g in spleen” value [1] was 22.733 % ID/g, the “% ID/g in stomach” value [1] was 2.348 % ID/g and the “% ID/g in tail” value [1] was 7.459 % ID/g. The “% ID/g in thyroids” value [1] was 4.391 % ID/g, the “% ID/g in urine” value [1] was 5.527 % ID/g and the “% ID/g in bladder” value [2] was 1.6996 % ID/g. The “% ID/g in blood” value [2] was 41.5628 % ID/g, the “% ID/g in bone (femur + joint)” value [2] was 2.7487 % ID/g and the “% ID/g in brain” value [2] was 0.6536 % ID/g. For the same compound, the “% ID/g in feces” value [2] was 0.3857 % ID/g, the “% ID/g in heart” value [2] was 8.3605 % ID/g and the “% ID/g in kidneys” value [2] was 9.6424 % ID/g. For the same compound, the “% ID/g in large intestines” value [2] was 1.1570 % ID/g, the “% ID/g in liver” value [2] was 23.6091 % ID/g and the “% ID/g in lungs” value [2] was 12.9714 % ID/g. For the same compound, the “% ID/g in pancreas” value [2] was 2.2821 % ID/g, the “% ID/g in small intestines” value [2] was 1.9641 % ID/g and the “% ID/g in spleen” value [2] was 24.0497 % ID/g. For the same compound, the “% ID/g in stomach” value [2] was 2.3704 % ID/g, the “% ID/g in tail” value [2] was 8.0722 % ID/g and the “% ID/g in thyroids” value [2] was 9.6295 % ID/g. For the same compound, the “% ID/g in urine” value [2] was 5.0951 % ID/g, the “% ID/g in bladder” value [3] was 1.9351 % ID/g and the “% ID/g in blood” value [3] was 42.3521 % ID/g. The “% ID/g in bone (femur + joint)” value [3] was 3.4560 % ID/g, the “% ID/g in brain” value [3] was 0.6755 % ID/g and the “% ID/g in feces” value [3] was 0.4896 % ID/g. The “% ID/g in heart” value [3] was 9.0992 % ID/g, the “% ID/g in kidneys” value [3] was 14.2266 % ID/g and the “% ID/g in large intestines” value [3] was 1.5716 % ID/g. For the same compound, the “% ID/g in liver” value [3] was 24.1147 % ID/g, the “% ID/g in lungs” value [3] was 14.4797 % ID/g and the “% ID/g in pancreas” value [3] was 2.4405 % ID/g. For the same compound, the “% ID/g in small intestines” value [3] was 2.0956 % ID/g, the “% ID/g in spleen” value [3] was 25.4263 % ID/g and the “% ID/g in stomach” value [3] was 2.4232 % ID/g. The “% ID/g in tail” value [3] was 9.1381 % ID/g, the “% ID/g in thyroids” value [3] was 3.5934 % ID/g and the “% ID/g in urine” value [3] was 19.8282 % ID/g. For the same compound, the “% ID/g in bladder” value [4] was 0.9047 % ID/g, the “% ID/g in blood” value [4] was 20.8234 % ID/g and the “% ID/g in bone (femur + joint)” value [4] was 2.4707 % ID/g. For the same compound, the “% ID/g in brain” value [4] was 0.2995 % ID/g, the “% ID/g in feces” value [4] was 0.2189 % ID/g and the “% ID/g in heart” value [4] was 4.4261 % ID/g. The “% ID/g in kidneys” value [4] was 7.2170 % ID/g, the “% ID/g in large intestines” value [4] was 0.6035 % ID/g and the “% ID/g in liver” value [4] was 39.8269 % ID/g. For the same compound, the “% ID/g in lungs” value [4] was 8.2412 % ID/g, the “% ID/g in pancreas” value [4] was 2.1771 % ID/g and the “% ID/g in small intestines” value [4] was 1.5594 % ID/g. For the same compound, the “% ID/g in spleen” value [4] was 34.8831 % ID/g, the “% ID/g in stomach” value [4] was 1.6211 % ID/g and the “% ID/g in tail” value [4] was 5.7939 % ID/g. For the same compound, the “% ID/g in thyroids” value [4] was 2.5988 % ID/g, the “% ID/g in urine” value [4] was 4.5194 % ID/g and the “% ID/g in bladder” value [5] was 0.8092 % ID/g. For the same compound, the “% ID/g in blood” value [5] was 21.4460 % ID/g, the “% ID/g in bone (femur + joint)” value [5] was 2.7705 % ID/g and the “% ID/g in brain” value [5] was 0.3247 % ID/g. The “% ID/g in feces” value [5] was 0.3300 % ID/g, the “% ID/g in heart” value [5] was 4.5832 % ID/g and the “% ID/g in kidneys” value [5] was 6.8770 % ID/g. For the same compound, the “% ID/g in large intestines” value [5] was 0.5629 % ID/g and the “% ID/g in liver” value [5] was 41.0995 % ID/g.
